In patent US20130303576A1, “ENZYME INHIBITORS” (priority 2009, published 2013):

What was measured:
[1] = system: U937 cells; experiment: U937 cell inhibition assay (WST-1 cell viability); assay type: cell-based; conditions: for times more potent in the monocytic cell line (U937) than the non-monocytic cell line (Hut78): U937 versus Hut78; for potency in the U937 cellular assay compared with the parent compound: versus parent compound A
Method: (§1) Cancer cell lines (U937 and HUT) growing in log phase were harvested and seeded at 1000-2000 cells/well (100 μl final volume) into 96-well tissue culture plates. Following 24 h of growth cells were treated with Compound. Plates were then re-incubated for a further 72-98 h before a WST-1 cell viability assay was conducted according to the suppliers (Roche Applied Science) instructions.
(§2) Data were expressed as a percentage inhibition of the control, measured in the absence of inhibitor, as follows:
(§3) % inhibition=100−[(S^i/S^o)×100]
(§4) where S^i is the signal in the presence of inhibitor and S^o is the signal in the presence of DMSO.
(§5) Dose response curves were generated from 8 concentrations (top final concentration 10 μM, with 3-fold dilutions), using 6 replicates.
(§6) IC50 values were determined by non-linear regression analysis, after fitting the results to the equation for sigmoidal dose response with variable slope (% activity against log concentration of Compound), using Graphpad Prism software.
(§7) IC50 results were allocated to one of 3 ranges as follows: […]

[2] = system: HUT78 cells; experiment: HUT cell inhibition assay (WST-1 cell viability); assay type: cell-based; conditions: read-out: Inhibition of proliferation in HUT78 cells (IC50 nM)
Method: as §1, §2, §3, §4, §5, §6, §7

SMILES: CC(C)CC(C)(NCc1ccc(CCC(=O)NO)cc1)C(=O)OC1CCCC1 (racemic) [Example 16, Cyclopentyl N-{4-[3-(hydroxyamino)-3-oxopropyl]benzyl}-2-methyl-D,L-leucinate]
- times more potent in the monocytic cell line (U937) than the non-monocytic cell line (Hut78) [1]: 30 times
- potency in the U937 cellular assay compared with the parent compound [1]: significantly more potent
- IC50 [2]: 0.04 nM

SMILES: O=C(CCc1ccc(CNC2(C(=O)OC3CCCC3)CCCC2)cc1)NO [Example 14, Cyclopentyl 1-({4-[3-hydroxyamino)-3-oxopropyl]benzyl}amino) cyclopentanecarboxylate]
- times more potent in the monocytic cell line (U937) than the non-monocytic cell line (Hut78) [1]: 30 times
- potency in the U937 cellular assay compared with the parent compound [1]: significantly more potent
